Where a chain is given by its changes, count along the chain named.
Experiments:
Huh-7 [1] = assay: Inhibition of HCV genotype-1a NS5A infected in human HuH7 cells by luciferase reporter gene assay; type: cell-based; details: Hepatitis C virus subtype 1a
[2] = Oral bioavailability in rat at 10 mg/kg measured after 24 hrs by LC/MS method; type: ADME, organism-based; details: in vivo
Huh-7 [3] = assay: Inhibition of HCV genotype-3a NS5A infected in human HuH7 cells by luciferase reporter gene assay; type: cell-based; details: Hepatitis C virus subtype 3a
[4] = Half life in rat at 2 mg/kg, iv by LC/MS method; type: ADME, organism-based; details: in vivo
[5] = test system: Nonstructural protein 5A (Hepatitis C virus), Q5L478 [UNDEFINED MUTATION]; assay: Inhibition of HCV genotype-1a NS5A L31V mutant infected in human HuH7 cells by luciferase reporter gene assay; type: cell-based; details: Hepatitis C virus subtype 1a; Huh-7
[6] = Plasma clearance in rat at 2 mg/kg, iv measured after 24 hrs by LC/MS method; type: ADME, organism-based
[7] = Drug uptake in rat at 10 mg/kg, po measured at 24 hrs post dose by LC/MS method; type: ADME, organism-based; details: in vivo, read-out: Drug uptake
Huh-7 [8] = assay: Inhibition of HCV genotype-4a NS5A infected in human HuH7 cells by luciferase reporter gene assay; type: cell-based; details: Hepatitis C virus subtype 4a
[9] = AUC (0 to t) in rat at 10 mg/kg, po measured after 24 hrs by LC/MS method; type: ADME, organism-based; design: dose 10 mg/kg, time < 24 hr, route oral; details: in vivo
Huh-7 [10] = assay: Inhibition of HCV genotype-2b NS5A harboring methionine at position 31 infected in human HuH7 cells by luciferase reporter gene assay; type: cell-based; details: Hepatitis C virus subtype 2b
[11] = test system: T1, Nonstructural protein 5A (Hepatitis C virus), Q5L478 [Y93H]; assay: Inhibition of HCV genotype-1a NS5A Y93H mutant infected in human HuH7 cells by luciferase reporter gene assay; type: cell-based; details: Hepatitis C virus subtype 1a; Huh-7
T1 sequence (whole entry): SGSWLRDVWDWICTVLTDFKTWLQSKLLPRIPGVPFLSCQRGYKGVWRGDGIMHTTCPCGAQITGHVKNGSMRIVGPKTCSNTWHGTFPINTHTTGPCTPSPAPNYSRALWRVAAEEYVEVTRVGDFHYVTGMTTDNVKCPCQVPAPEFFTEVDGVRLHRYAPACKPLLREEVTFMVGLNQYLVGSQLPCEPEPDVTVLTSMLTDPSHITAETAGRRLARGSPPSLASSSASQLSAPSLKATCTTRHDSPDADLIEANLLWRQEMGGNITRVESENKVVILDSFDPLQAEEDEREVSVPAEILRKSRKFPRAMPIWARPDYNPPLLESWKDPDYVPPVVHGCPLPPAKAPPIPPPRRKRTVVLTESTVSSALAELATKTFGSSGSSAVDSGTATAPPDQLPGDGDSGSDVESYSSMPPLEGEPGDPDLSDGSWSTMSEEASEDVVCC

Huh-7 [12] = assay: Inhibition of HCV genotype-1b NS5A infected in human HuH7 cells by luciferase reporter gene assay; type: cell-based; details: Hepatitis C virus subtype 1b
Huh-7 [13] = assay: Inhibition of HCV genotype-6 NS5A infected in human HuH7 cells by luciferase reporter gene assay; type: cell-based; details: Hepatitis C virus genotype 6
[14] = test system: T1, Nonstructural protein 5A (Hepatitis C virus), Q5L478 [Y93H]; assay: Inhibition of HCV genotype-1b NS5A Y93H mutant infected in human HuH7 cells by luciferase reporter gene assay; type: cell-based; details: Hepatitis C virus subtype 1b; Huh-7
[15] = test system: T2, Nonstructural protein 5A (Hepatitis C virus), Q5L478 [Y93C]; assay: Inhibition of HCV genotype-1a NS5A Y93C mutant infected in human HuH7 cells by luciferase reporter gene assay; type: cell-based; details: Hepatitis C virus subtype 1a; Huh-7
T2 sequence (whole entry): T1 sequence (whole entry) with H93C

[16] = test system: Nonstructural protein 5A (Hepatitis C virus), Q5L478 [UNDEFINED MUTATION]; assay: Inhibition of HCV genotype-1a NS5A Q30R mutant infected in human HuH7 cells by luciferase reporter gene assay; type: cell-based; details: Hepatitis C virus subtype 1a; Huh-7
Huh-7 [17] = assay: Inhibition of HCV genotype-5a NS5A infected in human HuH7 cells by luciferase reporter gene assay; type: cell-based; details: Hepatitis C virus subtype 5a
Huh-7 [18] = assay: Inhibition of HCV genotype-6d NS5A infected in human HuH7 cells by luciferase reporter gene assay; type: cell-based; details: Hepatitis C virus subtype 6d
Huh-7 [19] = assay: Inhibition of HCV genotype-2a NS5A infected in human HuH7 cells by luciferase reporter gene assay; type: cell-based; details: Hepatitis C virus subtype 2a
[20] = test system: Hepatitis C virus subtype 1a; assay: Selectivity ratio for EC90 for HCV genotype-1a NS5A Y93H mutant to EC90 for HCV genotype-1a NS5A
[21] = Drug uptake in dog at 5 mg/kg, po measured at 24 hrs post dose by LC/MS method; type: ADME, organism-based, Canis lupus familiaris; details: in vivo, read-out: Drug uptake
[22] = Selectivity ratio for EC90 for HCV genotype-2b NS5A harboring methionine at position 31 to EC90 for HCV genotype-1a NS5A
[23] = Selectivity ratio for EC90 for HCV genotype-3a NS5A to EC90 for HCV genotype-1a NS5A
[24] = test system: Hepatitis C virus subtype 1a; assay: Selectivity ratio for EC90 for HCV genotype-1a NS5A L31V mutant to EC90 for HCV genotype-1a NS5A
[25] = Plasma clearance in dog at 1 mg/kg, iv measured after 24 hrs by LC/MS method; type: ADME, organism-based, Canis lupus familiaris
[26] = Oral bioavailability in dog at 5 mg/kg measured after 24 hrs by LC/MS method; type: ADME, organism-based, Canis lupus familiaris; details: in vivo
[27] = AUC (0 to t) in dog at 5 mg/kg, po measured after 24 hrs by LC/MS method; type: ADME, organism-based, Canis lupus familiaris; design: time < 24 hr, dose 5 mg/kg, route oral; details: in vivo
[28] = AUC in rat at 10 mg/kg, po measured after 24 hrs by LC/MS method; type: ADME, organism-based; design: time < 24 hr, dose 10 mg/kg, route oral; details: in vivo
[29] = Selectivity ratio for EC90 for HCV genotype-4a NS5A to EC90 for HCV genotype-1a NS5A
[30] = Half life in dog at 1 mg/kg, iv by LC/MS method; type: ADME, organism-based, Canis lupus familiaris; details: in vivo
[31] = Plasma clearance in rhesus monkey at 1 mg/kg, iv measured after 48 hrs by LC/MS/MS method; type: ADME, organism-based, Macaca mulatta
[32] = Half life in rhesus monkey at 1 mg/kg, iv by LC/MS/MS method; type: ADME, organism-based, Macaca mulatta; details: in vivo
[33] = Oral bioavailability in rhesus monkey at 5 mg/kg measured at 48 hrs post dose by LC/MS/MS method; type: ADME, organism-based, Macaca mulatta; details: in vivo
[34] = AUC (0 to t) in rhesus monkey at 5 mg/kg, po measured after 48 hrs by LC/MS/MS method; type: ADME, organism-based, Macaca mulatta; design: dose 5 mg/kg, time < 48 hr, route oral; details: in vivo

| SMILES | EC90 (Huh-7 [1]) | bioavailability [2] | EC90 (Huh-7 [3]) | half-life [4] | EC90 [5] | clearance [6] | concentration at 24 h [7] | EC90 (Huh-7 [8]) | EC90 (Huh-7 [10]) | EC90 [11] | EC90 (Huh-7 [12]) | EC90 (Huh-7 [13]) | EC90 [14] | EC90 [15] | EC90 [16] | EC90 (Huh-7 [17]) | EC90 (Huh-7 [18]) | EC90 (Huh-7 [19]) | Selectivity ratio [20] | concentration at 24 h [21] | other results |
| --- | --- | --- | --- | --- | --- | --- | --- | --- | --- | --- | --- | --- | --- | --- | --- | --- | --- | --- | --- | --- | --- |
| COC(=O)N[C@H](C(=O)N1CCC[C@H]1c1ncc(-c2cc(F)c3c(c2)OC(c2cnc(C4CC4)s2)n2c-3cc3cc(-c4cnc([C@@H]5C[C@H]6C[C@H]6N5C(=O)[C@@H](NC(=O)OC)C(C)C)[nH]4)ccc32)[nH]1)C(C)C (some centres not stated) | 0.006 nM | 4% | 0.011 nM | 3.9 h | 0.007 nM | 12 mL/min/kg | 1.9 nM | 0.006 nM | 0.076 nM | 0.021 nM | – | – | – | – | – | – | – | – | – | – | AUC(0-t) at 24 h [9]: 0.52 µM·h |
| COC(=O)N[C@H](C(=O)N1CCC[C@H]1c1nc(-c2ccc3c(c2)O[C@@H](c2ccccc2)n2c-3cc3cc(-c4c[nH]c([C@@H]5CCCN5C(=O)[C@@H](NC(=O)OC)C(C)C)n4)ccc32)c[nH]1)C(C)C | 0.006 nM | – | 0.12 nM | – | – | – | – | 0.016 nM | 11 nM | – | 0.006 nM | 0.017 nM | 0.89 nM | 1.1 nM | 2.5 nM | 0.002 nM | 0.008 nM | 0.019 nM | – | – | – |
| CCCc1ncc(C2Oc3cc(-c4cnc([C@@H]5CCCN5C(=O)[C@@H](NC(=O)OC)C(C)C)[nH]4)cc(F)c3-c3cc4cc(-c5cnc([C@@H]6CCCN6C(=O)[C@@H](NC(=O)OC)C(C)C)[nH]5)ccc4n32)s1 (some centres not stated) | 0.001 nM | 7% | 0.002 nM | 4.3 h | 0.02 nM | 16 mL/min/kg | 4 nM | 0.01 nM | 0.14 nM | 0.088 nM | – | – | – | – | – | – | – | – | 88 | 76.7 nM | Selectivity ratio [22]: 140; Selectivity ratio [23]: 2; Selectivity ratio [24]: 20; clearance [25]: 1.8 mL/min/kg; bioavailability [26]: 23%; AUC(0-t) at 24 h [27]: 11 µM·h; AUC at 24 h [28]: 0.8 µM·h; Selectivity ratio [29]: 10; half-life [30]: 11.5 h |
| COC(=O)N[C@H](C(=O)N1CCC[C@H]1c1ncc(-c2cc(F)c3c(c2)O[C@@H](c2cnc(C4CC4)s2)n2c-3cc3cc(-c4cnc([C@@H]5CCCN5C(=O)[C@@H](NC(=O)OC)C(C)C)[nH]4)ccc32)[nH]1)C(C)C [RUZASVIR] | 0.003 nM | 4% | 0.006 to 0.007 nM | 4.7 h | 0.016 nM | 13 mL/min/kg | 3 nM | 0.007 to 0.011 nM | 0.036 nM | 0.067 nM | 0.003 nM | 0.007 nM | 0.009 nM | 0.002 nM | 0.011 nM | 0.001 nM | 0.027 nM | 0.001 nM | 22 | 43 nM | Selectivity ratio [22]: 12; Selectivity ratio [23]: 2; Selectivity ratio [24]: 5; clearance [25]: 1.6 mL/min/kg; bioavailability [26]: 22%; AUC(0-t) at 24 h [27]: 12.9 µM·h; AUC at 24 h [28]: 0.4 µM·h; Selectivity ratio [29]: 2; half-life [30]: 4 h |
| COC(=O)N[C@H](C(=O)N1CCC[C@H]1c1ncc(-c2cc(F)c3c(c2)OC(c2cc(C(C)C)no2)n2c-3cc3cc(-c4cnc([C@@H]5CCCN5C(=O)[C@@H](NC(=O)OC)C(C)C)[nH]4)ccc32)[nH]1)C(C)C (some centres not stated) | 0.002 nM | – | 0.019 nM | – | 0.056 nM | – | – | – | 0.92 nM | 0.42 nM | – | – | – | – | – | – | – | – | – | – | clearance [31]: 2.2 mL/min/kg; half-life [32]: 10.2 h; bioavailability [33]: 10%; AUC(0-t) at 48 h [34]: 3.9 µM·h |

— ChEMBL document CHEMBL3877294, “Discovery of Ruzasvir (MK-8408): A Potent, Pan-Genotype HCV NS5A Inhibitor with Optimized Activity against Common Resistance-Associated Polymorphisms” (J Med Chem, 2017)
